Results reported in ChEMBL document CHEMBL3243922, “Synthesis, redox characteristics, and in vitro norepinephrine uptake inhibiting properties of 2-(2-mercapto-4,5-dihydroxyphenyl)ethylamine (6-mercaptodopamine)” (J Med Chem, 1979).

Experiments:
Settings in all cases: in vivo
Rattus norvegicus [1] = test: Pressor activity in iv dosed normotensive Sprague-Dawley rat assessed as dose required for increasing systolic blood pressure […] 30 mm Hg; format: organism-based, Artery
Rattus norvegicus [2] = test: Neurotoxicity in Sprague-Dawley rat heart atria assessed as inhibition of [3H]norepinephrine uptake at 20 to 160 mg/kg, iv after 24 hrs by scintillation counting analysis; format: toxicity, organism-based; parameters: dose 20-160 mg/kg, route intravenous
Rattus norvegicus [3] = test: Central neurotoxicity in iv dosed Sprague-Dawley rat brain hypothalamus assessed as inhibition of [3H]norepinephrine uptake after 24 hrs by scintillation counting analysis; format: organism-based
Rattus norvegicus [4] = test: Neurotoxicity in Sprague-Dawley rat heart atria assessed as inhibition of [3H]norepinephrine uptake at 10 mg/kg, iv after 24 hrs by scintillation counting analysis; format: toxicity, organism-based; parameters: dose 10 mg/kg, route intravenous

Question: Which Activity (Rattus norvegicus [1]) does the source give for `CC(N)Cc1cc(O)c(O)cc1O` (stereo not drawn) here?
Answer: The Activity was 6 ×10⁻⁵ g.

Question: Which Activity (Rattus norvegicus [1]) does the source give for `NCCc1ccc(O)c(O)c1` [DOPAMINE] here?
Answer: The Activity was 2.9 µg.

Question: With `Cl.NCCc1cc(O)c(O)cc1S` as the molecule, how does the Activity (Rattus norvegicus [1]) read?
Answer: The Activity was 1.3 ×10⁻⁴ g.

Question: What about the Activity (Rattus norvegicus [2]) of the same molecule?
Answer: The Activity was “Toxic”.

Question: What about the Activity (Rattus norvegicus [3]) of the same molecule?
Answer: Its Activity is “Non-toxic”.

Question: With `C[C@H](N)Cc1ccc(O)c(O)c1` as the molecule, how does the Activity (Rattus norvegicus [1]) read?
Answer: Its Activity is 3.1 µg.

Question: Which Activity (Rattus norvegicus [1]) does the source give for `NCCc1cc(O)c(O)cc1O` [OXIDOPAMINE] here?
Answer: Its Activity is 1.6 ×10⁻⁵ g.

Question: And the Activity (Rattus norvegicus [4])?
Answer: The Activity was “Toxic”.
